Measurements published in PMC6283615, “Anilinoquinoline based inhibitors of trypanosomatid proliferation” (PLoS Neglected Tropical Diseases, 2018).
Converted amounts (≈) assume the structure as drawn.

Tests used:
L. major amastigote = assay: L. major intracellular amastigote luciferase assay in RAW 264.7 macrophages; format: cell-based, Leishmania major; conditions: intracellular amastigotes in RAW 264.7 macrophages, 96 h
Procedure: Amastigote assays were performed using pLEXSY-hyg2-luciferase L. major transfected promastigotes and the murine RAW 264.7 macrophage cell line (ATCC TIB-71, Manassas, VA). Briefly, luciferase-expressing promastigotes of each Leishmania species were generated by adding a luciferase encoding region to the pLEXSY-hyg2 vector (Jena Biosciences, Germany) as described. One μg of the linearized pLEXSY-hyg2-luciferase vector were electroporated (480 V, 13 Ω, and 500 μF) into 4×10^7 Leishmania promastigotes. Selection for stable promastigote transfectants was carried out using hygromycin B (100 μg/mL). RAW 264.7 macrophages were maintained in growth medium (Dulbecco’s Modified Eagle’s Medium supplemented with heat-inactivated 10% FBS (Life Technologies)). Cells were harvested and resuspended in growth medium at 2.0×10^5 cells/mL, and 1×10^4 cells/well were dispensed (final volume 50 μL) in each well of a 384 well tissue-culture treated white plate using a EVO Freedom liquid handling system (Tecan, Durham, NC). Plates were incubated at 37°C in 5% CO2 for 24 h after which the culture medium was removed from each well using the EVO Freedom liquid handler. Metacyclic phase pLEXSY-hyg2-luciferase-Leishmania promastigotes (MOI = 1:10 L. major) were added to each assay plate well and allowed to infect the RAW 264.7 macrophages. After an overnight incubation, the growth medium was aspirated and each well was washed three times with 40 μL of fresh growth medium to remove non-internalized promastigotes. After the third wash, 69.2 μL of growth medium was added to each well. Compound dilutions (final concentration ranges 0.5–10,000 ng/mL) were generated and dispensed using the liquid handling system. Compound treated plates were incubated at 37°C in 5% CO2 for 96 h. After incubation, 7.5 μL of a luciferin solution (Caliper Life Science, Waltham, MA) diluted to 150 μg/mL was added to each well, and the plates were incubated for 30 min at 37°C in the dark. Data were captured using an Infinite M200 plate reader (Tecan). EC50s were generated for each concentration response test using GraphPad Prism software 6.0.

[1] = test system: T. b. brucei (strain 427); assay: T. b. brucei proliferation assay (PrestoBlue, 48 h); format: cell-based, Trypanosoma brucei brucei
Procedure: The assay was performed following a previously reported procedure. Briefly, in a 96-well plate, compounds were added in triplicates at 50 μM and in serial dilutions 1:2 in HMI-9 medium. To each well, 100 μL of 2.5×10^3 T. b. brucei (strain 427, received as a gift from Dr. C. C. Wang at UCSF) in HMI-9 medium was were added and incubated at 37°C, 5% CO2 for 48 h. Following incubation, 20 μL of PrestoBlue were added to each well and incubated for additional 4 h. Fluorescence was read at 530 nm excitation and 590 nm emission.

[2] = test system: T. cruzi amastigote (Tulahuen strain expressing β-galactosidase); assay: Intracellular T. cruzi assay in 3T3 cells (beta-galactosidase, 96 h); format: cell-based, Trypanosoma cruzi; conditions: intracellular in 3T3 cells, 96 h; read-out: T. cruzi amastigote EC50
Procedure: In a 96-well plate, 5×10^4 3T3 cells in DMEM without phenol red supplemented with 2% FBS were added to each well. Cells were incubated for 2 h to allow for attachment. Compounds were added in triplicates at 50 μM and in serial dilutions 1:2. To each well, 5×10^4 T. cruzi trypomastigotes (Tulahuen strain expressing β-galactosidase) were added and incubated at 37°C, 5% CO2 for 96 h. Following incubation, 50 μL of 500 μM chlorophenol Red-β-D-galactopyranoside (CPRG) in phosphate-buffered saline with 0.5% NP40 was added to each well and incubated at 37°C, 5% CO2 for 4 h. Absorbance was read at 590–595 nm.

NIH/3T3 cells = assay: Drug toxicity to 3T3 cells (Alamar Blue, 96 h); format: cell-based
Procedure: In a 96-well plate, 5×10^4 NIH/3T3 (ATCC CRL-1658) cells (purchased from ATCC) in DMEM without phenol red supplemented with 2% FBS were added to each well. Cells were incubated for 2 h to allow for attachment. Compounds were added in triplicates at 200 μM and in serial dilutions 1:2 and incubated at 37°C, 5% CO2 for 96 h. […] Following incubation, 10 μL of Alamar Blue (ThermoFisher) were added to each well and cells incubated at 37°C, 5% CO2 for 4 h. Absorbance was read at 590–595 nm.

HepG2 cells = assay: Drug toxicity to HepG2 cells (MTT, 48 h); format: cell-based, human; conditions: tested concentration ranges based on compound solubility
Procedure: HepG2 cells were cultured in complete Minimal Essential Medium prepared by supplementing MEM with 0.19% sodium bicarbonate, 10% heat inactivated FBS, 2 mM L-glutamine, 0.1 mM MEM non-essential amino, 0.009 mg/mL insulin, 1.76 mg/mL bovine serum albumin, 20 units/mL penicillin–streptomycin, and 0.05 mg/mL gentamycin. HepG2 cells cultured in complete MEM were first washed with 1× Hank’s Balanced Salt Solution (Invitrogen #14175095), trypsinized using a 0.25% trypsin/EDTA solution, assessed for viability using trypan blue, and resuspended at 250,000 cells/mL. Using a Tecan EVO Freedom robot, 38.3 μL of cell suspension were added to each well of clear, cell culture-treated 384-well microtiter plates for a final concentration of 9570 liver cells per well, and plated cells were incubated overnight in 5% CO2 at 37°C. Drug plates were prepared with the Tecan EVO Freedom using sterile 96 well plates containing twelve duplicate 1.6-fold serial dilutions of each test compound suspended in DMSO. 4.25 μL of diluted test compound was then added to the 38.3 μL of media in each well providing a […] final dilution of compound. Compounds were tested from a range of 57 ng/mL to 10,000 ng/mL for all assays. Mefloquine was used as a plate control for all assays with a concentration ranging from 113 ng/mL to 20,000 ng/mL. After a 48 h incubation period, 8 μL of a 1.5 mg/mL solution of MTT diluted in complete MEM media was added to each well. All plates were subsequently incubated in the dark for 1 h at room temperature. After incubation, the media and drugs in each well was removed by shaking the plate over sink, and the plates were left to dry in a fume hood for 15 mins. Next, 30 μL of isopropanol acidified by addition of HCl at a final concentration of 0.36% was added to dissolve the formazan dye crystals created by reduction of MTT. Plates are put on a 3-D rotator for 15–30 mins. Absorbance was determined in all wells using a Tecan iControl 1.6 Infinite plate reader.

Aqueous solubility = format: physicochemical
[3] = Human liver microsome intrinsic clearance; format: in vitro ADME
[4] = Rat hepatocyte intrinsic clearance; format: in vitro ADME
LogD7.4 = format: physicochemical; conditions: pH 7.4
[5] = Human plasma protein binding; format: in vitro ADME

Structure (SMILES)	EC50 (L. major amastigote)	EC50 [1]	EC50 [2]	3T3 TC50 (NIH/3T3 cells)	HepG2 TC50 (HepG2 cells)	solubility (Aqueous solubility)	Human Liver Microsome CLint [3]	Rat Hepatocyte CLint [4]	LogD7.4 (LogD7.4)	Human PPB [5]
Cc1cc(Nc2ccc3c(Nc4cnccn4)ccnc3c2)sn1 [NEU-2148]	4.7 µM	7.6 µM	> 50 µM	> 100 µM	36 µM	2 µM (≈ 0.669 µg/mL)	28 µL/min/mg	9 μL/min/10^6 cells	3.5	
Cc1n[nH]c(C)c1Nc1ccc2c(Nc3cnccn3)ccnc2c1 [NEU-2146]	27 µM	17 µM	> 50 µM	> 100 µM	40 µM		8 µL/min/mg	120 μL/min/10^6 cells	1.8	68%
c1cnc(Nc2ccnc3cc(Nc4nccs4)ccc23)cn1 [NEU-2141]	24 µM	4.4 µM	22 µM	24 µM	7.1 µM	4 µM (≈ 1.28 µg/mL)	68 µL/min/mg	270 μL/min/10^6 cells	3.3	91%
Cn1ccnc1Nc1ccc2c(Nc3cnccn3)ccnc2c1 [NEU-2147]	5.5 µM	49 µM	> 50 µM	> 100 µM	42 µM	160 µM (≈ 50.8 µg/mL)	12 µL/min/mg	37 μL/min/10^6 cells	1.7	57%
Cc1ccc(-c2ccc3c(Nc4cnccn4)ccnc3c2)o1 [NEU-2133]	33 µM	5.3 µM	0.79 µM	> 50 µM	50 µM	4 µM (≈ 1.21 µg/mL)	190 µL/min/mg	290 μL/min/10^6 cells	4	99%
COc1ccc(Nc2ccnc3cc(Nc4ccnc(N5CCN(C)CC5)n4)ccc23)cc1Cl [NEU-2093]	4.6 µM	0.34 µM	8.1 µM	15 µM	4.7 µM		45 µL/min/mg	2.3 μL/min/10^6 cells		
Cc1cnc(Nc2ccc3c(Nc4cnccn4)ccnc3c2)s1 [NEU-2149]	5.3 µM	2.3 µM	> 50 µM	> 50 µM	5 µM	1 µM (≈ 0.334 µg/mL)	54 µL/min/mg	> 300 μL/min/10^6 cells	3.7	96%
COc1ccc(Nc2ccnc3cc(-c4ccc(C)o4)ccc23)cc1Cl [NEU-2134]	27 µM	> 20 µM	1.2 µM	> 100 µM	42 µM	0.1 µM (≈ 0.0365 µg/mL)	> 300 µL/min/mg	193 μL/min/10^6 cells	4.8	> 99%
Cn1cc(Nc2ccc3c(Nc4cnccn4)ccnc3c2)cn1 [NEU-2143]	28 µM	14 µM	> 50 µM	> 50 µM	29 µM		10 µL/min/mg	66 μL/min/10^6 cells	1.9	63%
CN1CCN(c2ncc(-c3ccc4c(Nc5ccc6[nH]nnc6c5)ccnc4c3)cn2)CC1 [NEU-1957]	21 µM	21 µM	> 50 µM	> 100 µM	14 µM	< 1 µM	120 µL/min/mg	51 μL/min/10^6 cells	3.3	91%
c1cnc(Nc2ccnc3cc(Nc4nccnn4)ccc23)cn1 [NEU-2145]	28 µM	4.7 µM	> 50 µM	> 50 µM	11 µM	3 µM (≈ 0.949 µg/mL)	42 µL/min/mg	> 300 μL/min/10^6 cells	2.1	75%
Cc1nn(C)c(C)c1Nc1ccc2c(Nc3cnccn3)ccnc2c1 [NEU-2142]	26 µM	23 µM	> 50 µM	> 100 µM	39 µM	570 µM (≈ 197 µg/mL)	13 µL/min/mg	32 μL/min/10^6 cells	2	59%
Cn1cc(-c2ccc3c(Nc4cnccn4)ccnc3c2)cn1 [NEU-2129]	33 µM	3.3 µM	2.4 µM	37 µM	40 µM	4 µM (≈ 1.21 µg/mL)	25 µL/min/mg	290 μL/min/10^6 cells	2.9	
Cn1nccc1Nc1ccc2c(Nc3cnccn3)ccnc2c1 [NEU-2144]	28 µM	14 µM	> 50 µM	> 50 µM	35 µM	100 µM (≈ 31.7 µg/mL)	10 µL/min/mg	16 μL/min/10^6 cells	2.4	69%
